From patent publication US20220386611A1, “NOVEL HETEROARYL-TRIAZOLE COMPOUNDS AS PESTICIDES” (Bayer Aktiengesellschaft, priority 2019, published 2022)

How the values were obtained:
Type in all cases: in vivo
[1] = tested on: larvae of the banded cucumber beetle (Diabrotica balteata); assay: Diabrotica balteata spray test; conditions: 168 h, 100 g/ha (=32 μg/well), after 7 days, wheat seeds, read-out: efficacy (seedlings grown like untreated, uninfected control)
Protocol: Diabrotica balteata—spray test
Solvent: 78.0 parts by weight of acetone
1.5 parts by weight of dimethylformamide
(§1) Emulsifier: alkylarylpolyglycol ether
(§2) To produce a suitable preparation of active compound, 1 part by weight of active compound is mixed with the stated amount of solvent, and the concentrate is diluted with water, containing an emulsifier concentration of 1000 ppm, to the desired concentration. Further test concentrations are prepared by dilution with emulsifier containing water.
Soaked wheat seeds (Triticum aestivum) are placed in a multiple well plate filled with agar and some water and are incubated for 1 day to germinate (5 seeds per well). The germinated wheat seeds are sprayed with a test solution containing the desired concentration of the active ingredient. Afterwards each unit is infected with 10-20 larvae of the banded cucumber beetle (Diabrotica balteata).
After 7 days efficacy in % is determined. 100% means all the seedlings have grown up like in the untreated, uninfected control; 0% means none of the seedlings have grown.

[2] = tested on: green peach aphid (Myzus persicae); assay: Myzus persicae oral test; conditions: 120 h
Protocol: Solvent: 100 parts by weight acetone
To produce a suitable preparation of active compound, 1 part by weight of active compound is mixed with the stated amount of solvent, and the concentrate is diluted with water to the desired concentration. 50 μL compound solution is filled in microtiter plates and 150 μL IPL41 insect medium (33%+15% sugar) is added to obtain a total volume of 200 μL per well. Afterwards the plates are sealed with parafilm through which a mixed population of the green peach aphid (Myzus persicae) can suck on the compound preparation.
(§3) After 5 days mortality in % is determined. 100% means all aphids have been killed and 0% means none of the aphids have been killed.

[3] = tested on: Anopheles funestus strain FUMOZ-R; assay: Anopheles funestus test (ANPHFU surface treatment & contact assay); conditions: surface concentration 20 mg/m^2, 30 minutes exposure, 24 hours after contact, read-out: efficacy (mortality)
Protocol: Anopheles funestus Test (ANPHFU Surface Treatment & Contact Assay)
(§4) Solvent: Aceton+2000 ppm rapeseed oil methyl ester (RME)
(§5) In order to produce a sufficient, active ingredient containing solution it is necessary to solve the test compound in the solvent-mix (acetone at 2 mg/ml/RME 2000 ppm). This solution is pipetted onto a glazed tile and after evaporation of the acetone, adult mosquitoes of the species Anopheles funestus strain FUMOZ-R (Hunt et al., Med. Vet. Entomol. 2005 September; 19(3): 271-275) are placed onto the dried surface. The exposure time is 30 minutes. Mortality in percent (%) is determined 24 hours after contact of the insects to the treated surface. 100% mortality means that all tested insects are dead, whereas 0% means that no insect died.

[4] = tested on: green peach aphid (Myzus persicae); assay: Myzus persicae spray test; conditions: foliar, 120 h, after 5 days, Chinese cabbage leaf disks
Protocol: Myzus persicae—spray test
(§6) Solvent: 78.0 parts by weight acetone • 1.5 parts by weight dimethylformamide
as §1
as §2, with “solvents” for “solvent,”, “and” for “and the concentrate”
Chinese cabbage (Brassica pekinensis) leaf disks infected with all instars of the green peach aphid (Myzus persicae), are sprayed with a preparation of the active ingredient of the desired concentration.
as §3

[5] = tested on: fall armyworm larvae (Spodoptera frugiperda); assay: Spodoptera frugiperda spray test; conditions: in Zea mays, 168 h
Protocol: Spodoptera frukiperda—Spray Test
as §6, §1
as §2, with “solvents” for “solvent,”, “and” for “and the concentrate”
Maize (Zea mays) leaf sections are sprayed with a preparation of the active ingredient of the desired concentration. Once dry, the leaf sections are infested with fall armyworm larvae (Spodoptera frugiperda).
After 7 days mortality in % is determined. 100% means all caterpillars have been killed and 0% means none of the caterpillars have been killed.

[6] = tested on: Aedes aegypti strain MONHEIM; assay: Aedes aegypti test (AEDSAE surface treatment & contact assay); conditions: 24 hours after contact, read-out: efficacy (mortality); for mortality at 20 mg/m2: surface concentration 20 mg/m^2, 30 minutes exposure
Protocol: Aedes Aegypti Test (AEDSAE Surface Treatment & Contact Assay)
as §4
as §5, with “Aedes aegypti” for “Anopheles funestus”, “MONHEIM” for “FUMOZ-R (Hunt et al., Med. Vet. Entomol. 2005 September; 19(3): 271-275)”

[7] = tested on: Musca domestica strain WHO-N; assay: Musca domestica test (MUSCDO surface treatment & contact assay); conditions: 24 hours after contact, read-out: efficacy (mortality); for mortality at 4 mg/m2: surface concentration 4 mg/m^2, 30 minutes exposure; for mortality at 20 mg/m2: surface concentration 20 mg/m^2, 30 minutes exposure
Protocol: Musca domestica Test (MUSCDO Surface Treatment & Contact Assay)
as §4
as §5, with “flies” for “mosquitoes”, “Musca domestica” for “Anopheles funestus”, “WHO-N” for “FUMOZ-R (Hunt et al., Med. Vet. Entomol. 2005 September; 19(3): 271-275)”

[8] = tested on: adult engorged female ticks (Rhipicephalus microplus); assay: Rhipicephalus (Boophilus) microplus injection test; conditions: 168 h, after 7 days, read-out: efficacy (infertile eggs); for pest or weed control at 0.004 mg: 4 μg/animal; for pest or weed control at 0.02 mg: 20 μg/animal
Protocol: Rhipicephalus (Boophilus) microplus—Injection Test
(§7) Solvent: dimethyl sulfoxide
To produce a suitable preparation of active compound, 10 mg of active compound are dissolved in 0.5 mL solvent, and the concentrate is diluted with solvent to the desired concentration.
Five adult engorged female ticks (Rhipicephalus microplus) are injected with 1 μL compound solution into the abdomen. The ticks are transferred into replica plates and incubated in a climate chamber.
After 7 days egg deposition of fertile eggs is monitored. Eggs where fertility is not visible are stored in a climate chamber till hatching after about 42 days. An efficacy of 100% means all eggs are infertile; 0% means all eggs are fertile.

[9] = tested on: Rhipicephalus microplus larvae (strain Parkhurst, resistant against synthetic pyrethroids); assay: Rhipicephalus (Boophilus) microplus in-vitro contact test, larval cattle tick; conditions: 5 μg/cm^2 (=500 g/ha), after 48 hours, read-out: efficacy (larvae dead or moribund)
Protocol: Rhipicephalus (Boophilus) Microplus—In-Vitro Contact Tests Larval Cattle Tick (Strain Parkhurst, Resistant Against Synthetic Pyrethroids)
(§8) 9 mg compound is solved in 1 mL acetone and diluted with acetone to the desired concentration. 250 μL of the test solution is filled in 25 mL glass test tubes and homogeneously distributed on the inner walls by rotation and tilting on a shaking device (2 h at 30 rpm). With a compound concentration of 900 ppm, an inner surface of 44.7 cm^2 and a homogeneous distribution, a dose of 5 μg/cm^2 is achieved.
After the solvent has evaporated, each test tube is filled with 20-50 cattle tick larvae (Rhipicephalus microplus), closed with a perforated lid and incubated in a horizontal position at 85% relative humidity and 27° C. in an incubator. After 48 hours efficacy is determined. The larvae are patted on the ground of the tubes and negative geotactic behaviour is recorded.
An efficacy of 100% means all larvae are dead or moribund; 0% means no larvae are dead or moribund.

[10] = tested on: adult unfed cat fleas (Ctenocephalides felis); assay: Ctenocephalides felis oral test; conditions: 48 h
Protocol: Ctenocephalides felis—Oral Test
as §7
To produce a suitable preparation of active compound, 10 mg of active compound are dissolved in 0.5 ml solvent, and the concentrate is diluted with cattle blood to the desired concentration.
Approximately 20 adult unfed cat fleas (Ctenocephalides felis) are placed in flea chambers. The blood chamber, sealed with parafilm on the bottom, are filled with cattle blood supplied with compound solution and placed on the gauze covered top of the flea chamber, so that the fleas are able to suck the blood. The blood chamber is heated to 37° C. whereas the flea chamber is kept at room temperature.
After 2 days mortality in % is determined. 100% means all the fleas have been killed; 0% means none of the fleas have been killed.

[11] = tested on: adult brown dog ticks (Rhipicephalus sanguineus); assay: Rhipicephalus sanguineus in-vitro contact test with adult brown dog ticks; conditions: 5 μg/cm^2 (=500 g/ha), after 48 hours, read-out: efficacy (ticks dead or moribund)
Protocol: Rhipicephalus sanguineus—In-Vitro Contact Tests with Adult Brown Dog Ticks
as §8
After the solvent has evaporated, each test tube is filled with 5-10 adult brown dog ticks (Rhipicephalus sanguineus), closed with a perforated lid and incubated in a lying position at room temperature and relative humidity. After 48 hours efficacy is determined. The ticks are patted on the ground of the tubes and are incubated on a heating plate at 45-50° C. for at most 5 minutes. Immotile or uncoordinated moving ticks, which are not able to escape the heat by climbing upwards, are marked as dead or moribund.
An efficacy of 100% means all ticks are dead or moribund; 0% means no ticks are dead or moribund.

[12] = tested on: Blattella germanica strain PAULINIA; assay: Blattella germanica test (BLTTGE surface treatment & contact assay); conditions: surface concentration 20 mg/m^2, 30 minutes exposure, 24 hours after contact, read-out: efficacy (mortality)
Protocol: Blattella germanica Test (BLTTGE Surface Treatment & Contact Assay)
as §4
as §5, with “animals” for “mosquitoes”, “Blattella germanica” for “Anopheles funestus”, “PAULINIA” for “FUMOZ-R (Hunt et al., Med. Vet. Entomol. 2005 September; 19(3): 271-275)”

[13] = tested on: larvae of the southern green stink bug (Nezara viridula); assay: Nezara viridula spray test; conditions: 96 h, after 4 days, barley plants
Protocol: Nezara viridula—Spray Test
Solvent: 78.0 parts by weight of acetone • • 1.5 parts by weight of dimethylformamide
as §1, §2
Barley plants (Hordeum vulgare) infested with larvae of the southern green stink bug (Nezara viridula) are sprayed with a test solution containing the desired concentration of the active ingredient.
After 4 days mortality in % is determined. 100% means all the stink bugs have been killed; 0% means none of the stink bugs have been killed.

[14] = tested on: adult cat fleas (Ctenocephalides felis); assay: Ctenocephalides felis in-vitro contact test, adult cat flea; conditions: after 48 hours, read-out: efficacy (fleas dead or moribund)
Protocol: as §8, with “Ctenocephalides felis—In-Vitro Contact Tests Adult Cat Flea 9 mg” for “9 mg”
After the solvent has evaporated, each test tube is filled with 5-10 adult cat fleas (Ctenocephalidesfelis), closed with a perforated lid and incubated in a lying position at room temperature and relative humidity.
After 48 hours efficacy is determined. The fleas are patted on the ground of the tubes and are incubated on a heating plate at 45-50° C. for at most 5 minutes. Immotile or uncoordinated moving fleas, which are not able to escape the heat by climbing upwards, are marked as dead or moribund.
An efficacy of 100% means all fleas are dead or moribund; 0% means no fleas are dead or moribund.

Compound	pest or weed control at 32 µg/disc, 100 g/ha [1] [%]	mortality at 4 ppm [2] [%]	mortality at 20 mg/m2 [3] [%]	mortality at 100 g/ha [4] [%]	mortality at 100 g/ha [5] [%]	mortality at 4 mg/m2 ([6]; surface concentration 4 mg/m^2, 30 minutes exposure) [%]	mortality at 20 mg/m2 [6] [%]	mortality at 4 mg/m2 [7] [%]	mortality at 20 mg/m2 [7] [%]	pest or weed control at 0.004 mg [8] [%]	pest or weed control at 0.02 mg [8] [%]	pest or weed control at 5 µg/cm2 [9] [%]	mortality at 100 ppm [10] [%]	pest or weed control at 5 µg/cm2, 500 g/ha [11] [%]	mortality at 20 mg/m2 [12] [%]	mortality at 100 g/ha [13] [%]	pest or weed control at 1 µg/cm2, 100 g/ha ([14]; 1 μg/cm^2 (=100 g/ha)) [%]	pest or weed control at 5 µg/cm2, 500 g/ha ([14]; 5 μg/cm^2 (=500 g/ha)) [%]
CC(NC(=O)c1cc(Cl)cc(OC(F)(F)F)c1)c1nc(Cl)nn1-c1ncccn1 (racemic) [Example I-001, 3-chloro-N-[1-(5-chloro-2-pyrimidin-2-yl-1,2,4-triazol-3-yl)ethyl]-5-(trifluoromethoxy)benzamide]	100	100	80 to 100	90	100	80 to 100	80 to 100	80 to 100	80 to 100	–	–	–	–	–	–	–	–	–
CC(NC(=O)c1cc(Cl)cc(C(F)(F)F)c1)c1nc(Br)nn1-c1ccc(Cl)cn1 (racemic) [Example I-018, N-[1-[5-bromo-2-(5-chloro-2-pyridyl)-1,2,4-triazol-3-yl]ethyl]-3-chloro-5-(trifluoromethyl)benzamide]	100	–	80 to 100	–	83	–	80 to 100	–	–	80	100	80	–	–	–	–	–	–
CC(NC(=O)c1cc(Br)cc(C(F)(F)F)c1)c1nc(Cl)nn1-c1ncccn1 (stereo not shown) [Example I-003]	100	100	–	–	100	–	80 to 100	80 to 100	80 to 100	100	100	100	100	100	80 to 100	–	–	–
CC(NC(=O)c1cc(Cl)cc(C(F)(F)F)c1)c1nc(Br)nn1-c1ncccn1 (stereo not shown) [Example I-016]	100	100	80 to 100	–	100	–	80 to 100	–	–	100	–	80	100	–	80 to 100	–	–	–
CC(NC(=O)c1cc(Cl)nc(C(F)(F)F)c1)c1nc(I)nn1-c1ncccn1 (stereo not shown) [Example I-024]	100	–	–	–	–	–	–	–	–	–	–	100	–	80	–	100	80	90
